Source: ChEMBL document CHEMBL1201862, “PubChem BioAssay data set” (2004)
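Compound exposure: 48 hours, 5 concentrations, 96-well plates. GI50: concentration for 50% inhibition of growth.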 Activity calls are given as the source filed them. No stated cut-off is given here; in the data, active = GI50 up to about 1.1 µM and inactive = higher.

Columns and labels:
Assay in all cases: NCI-60 cell line screen, 48 h
UACC-257 = test system: UACC-257
SK-OV-3 = test system: SK-OV-3
DLD-1 = test system: DLD-1
DMS-114 = test system: DMS-114
786-0 = test system: 786-0
KM-20L2 = test system: KM-20L2
HL-60 = test system: HL-60
K562 = test system: K562
NCI-H460 = test system: NCI-H460
SK-MEL-5 = test system: SK-MEL-5
SN12C = test system: SN12C
HCT-116 = test system: HCT-116
LOX IMVI = test system: LOX IMVI
M19-MEL = test system: M19-MEL
NCI-H23 = test system: NCI-H23
RPMI-8226 = test system: RPMI-8226
CCRF-CEM = test system: CCRF-CEM
XF498 = test system: XF498
SF-539 = test system: SF-539
HOP-18 = test system: HOP-18
UACC-62 = test system: UACC-62
Malme-3M = test system: Malme-3M
ACHN = test system: ACHN
UO-31 = test system: UO-31
HOP-62 = test system: HOP-62
SNB-19 = test system: SNB-19
HCT-15 = test system: HCT-15
SK-MEL-28 = test system: SK-MEL-28
SW-620 = test system: SW-620
U-251 = test system: U-251
OVCAR-3 = test system: OVCAR-3
OVCAR-8 = test system: OVCAR-8
TK-10 = test system: TK-10
MOLT-4 = test system: MOLT-4
M14 = test system: M14
SF-295 = test system: SF-295
EKVX = test system: EKVX
NCI-H522 = test system: NCI-H522
COLO 205 = test system: COLO 205
DMS-273 = test system: DMS-273
A549 = test system: A549
HT-29 = test system: HT-29
SNB-75 = test system: SNB-75
RXF 393 = test system: RXF 393
NCI-H226 = test system: NCI-H226
IGROV-1 = test system: IGROV-1
KM12 = test system: KM12

## CC1Cc2c(N)nc(NN)nc2NC1=O (configuration not stated)
UACC-257
  GI50: > 100 µM (inactive)
SK-OV-3
  GI50: > 100 µM (inactive)
DLD-1
  GI50: > 100 µM (inactive)
DMS-114
  GI50: > 100 µM (inactive)
786-0
  GI50: > 100 µM (inactive)
KM-20L2
  GI50: > 100 µM (inactive)
HL-60
  GI50: > 100 µM (inactive)
K562
  GI50: > 100 µM (inactive)
NCI-H460
  GI50: > 100 µM (inactive)
SK-MEL-5
  GI50: > 100 µM (inactive)
SN12C
  GI50: > 100 µM (inactive)
HCT-116
  GI50: > 100 µM (inactive)
LOX IMVI
  GI50: > 100 µM (inactive)
M19-MEL
  GI50: > 100 µM (inactive)
NCI-H23
  GI50: > 100 µM (inactive)
RPMI-8226
  GI50: > 100 µM (inactive)
CCRF-CEM
  GI50: > 100 µM (inactive)
XF498
  GI50: 3.94 µM (inactive)
SF-539
  GI50: > 100 µM (inactive)
HOP-18
  GI50: > 100 µM (inactive)
UACC-62
  GI50: > 100 µM (inactive)
Malme-3M
  GI50: > 100 µM (inactive)
ACHN
  GI50: > 100 µM (inactive)
UO-31
  GI50: > 100 µM (inactive)
HOP-62
  GI50: > 100 µM (inactive)
SNB-19
  GI50: > 100 µM (inactive)
HCT-15
  GI50: > 100 µM
SK-MEL-28
  GI50: > 100 µM (inactive)
SW-620
  GI50: > 100 µM (inactive)
U-251
  GI50: > 100 µM (inactive)
OVCAR-3
  GI50: > 100 µM (inactive)
OVCAR-8
  GI50: > 100 µM (inactive)
TK-10
  GI50: > 100 µM (inactive)
MOLT-4
  GI50: > 100 µM (inactive)
M14
  GI50: > 100 µM (inactive)
SF-295
  GI50: > 100 µM (inactive)
EKVX
  GI50: > 100 µM (inactive)
NCI-H522
  GI50: > 100 µM (inactive)
COLO 205
  GI50: > 100 µM (inactive)
DMS-273
  GI50: > 100 µM (inactive)
A549
  GI50: > 100 µM (inactive)
HT-29
  GI50: > 100 µM (inactive)
SNB-75
  GI50: > 100 µM (inactive)
RXF 393
  GI50: > 100 µM (inactive)
NCI-H226
  GI50: > 100 µM (inactive)
IGROV-1
  GI50: > 100 µM (inactive)
KM12
  GI50: > 100 µM (inactive)
